According to patent US10688082B2, “Aminopyrazine compounds with A2A antagonist properties” (Merck Sharp & Dohme Corp., priority 2015, dated 2020):

Target: T1, human A2a receptor (Homo sapiens, UniProt P29274)
T1 construct: purchased Perkin-Elmer RBHA2AM400UA; host or cells: HEK293 cells (membranes)
Test: Competition binding assay using Scintillation Proximity technology (A2a activity)
Conditions: membranes from HEK293 cells expressing the human A2a receptor; 0.5 nM tritiated ligand; Cheng-Prusoff
Procedure: Binding affinities of compounds of the invention for the human A2a receptor were determined in a competition binding assay using Scintillation Proximity technology. Thus, […] from HEK293 cells expressing the human A2a receptor were incubated with a compound of the invention at concentrations ranging from 3000 nM to 0.15 nM in a reaction mixture containing also 0.5 nM of a tritiated form of 5-amino-7-[2-phenethyl]-2-(furan-2-yl)-7H-pyrazolo[4,3-e][1,2,4]triazolo[1,5-c]pyrimidine (the tritiated compound) and 100 μg of wheat germ agglutin-coated yttrium silicate SPA beads for one hour at room temperature with agitation. The beads were then allowed to settle to the bottom of the wells for 1 hr, after which the membrane-associated radioactivity was determined by scintillation counting in a TopCount microplate reader. Ki values were determined using the Cheng-Prusoff equation.
HEK293 cells expressing the human, rat, dog or monkey adenosine 2a receptor (Purchased from Perkin-Elmer # RBHA2AM400UA).
The Tritiated compound was prepared according to published methods.
Wheat germ agglutinin-coated yttrium silicate SPA beads (GE Healthcare # RPNQ0023). Dilute to 25 mg/ml in assay buffer.
Assay Buffer was prepared using Dulbecco's calcium and magnesium free phosphate buffered saline+10 mM MgCl2
Adenosine deaminase from calf intestine, 10 mg/2 ml (Roche #10 102 105 001).
A2a antagonist standard (9-chloro-1-(2-furanyl)-[1,2,4]triazolo1,5-c]quinazolin-5-amine from Tocris Bioscience)
Make eight 1:3 serial dilutions in 100% DMSO from a 3 mM compound stock
Transfer 50 nl of compound into a 384-well OptiPlate (Perkin Elmer).
Typically, final concentrations of compound used in the assay ranged from 3000 nM to 0.152 nM.
Dilute a solution of the Tritiated compound to 1.25 nM in assay buffer. This is a 2.5× solution. The final concentration in the assay is 0.5 nM. Calculate the concentration by counting two 5 μl aliquots.
Use 0.25 ug of membrane/well. Dilute membranes to 9.7 μg/ml in assay buffer. Treat with 20 ug/ml adenosine deaminase (ADA) for 15 minutes at room temperature to degrade endogenous adenosine.
Use 100 μg/well wheat germ agglutinin-coated yttrium silicate SPA beads.
Mix ADA-treated membranes and SPA beads together for 30 min prior to assay.
To the Perkin-Elmer Optiplate-384 containing the compound titration add 20 μl of 2.5× solution of the Tritiated compound and 30 μl of the membrane-bead mixture. Incubate for one hour at room temperature with agitation.
Include total binding (assay buffer+1% DMSO) and non-specific binding (CGS15943, 1 μM) wells.
Allow the beads to settle for one hour.
A curve fitting program (i.e., Prism, Activity Base, Chemcart) is used to determine the EC50. The Ki value is calculated using the Cheng-Prusoff equation. K i=EC50/(1+(radioligand concentration/Kd))

T1 sequence (P29274 whole entry): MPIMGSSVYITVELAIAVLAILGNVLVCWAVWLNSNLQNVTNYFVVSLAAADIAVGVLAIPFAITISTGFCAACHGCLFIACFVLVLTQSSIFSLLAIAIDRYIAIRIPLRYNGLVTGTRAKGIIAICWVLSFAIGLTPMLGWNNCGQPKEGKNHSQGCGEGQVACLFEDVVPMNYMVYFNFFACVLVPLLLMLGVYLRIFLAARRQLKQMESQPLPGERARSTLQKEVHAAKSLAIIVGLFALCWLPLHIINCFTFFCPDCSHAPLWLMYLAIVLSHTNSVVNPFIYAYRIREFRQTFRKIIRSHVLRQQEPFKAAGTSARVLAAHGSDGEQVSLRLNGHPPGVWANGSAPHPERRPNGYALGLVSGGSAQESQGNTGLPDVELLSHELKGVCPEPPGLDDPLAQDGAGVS

Row | SMILES | Ki
1 | COc1cccc2c1nc(N)n1nc(C(=O)NCc3ccc(F)cc3F)cc21 [Ex-77, 5-amino-N-(2,4-difluorobenzyl)-7-methoxypyrazolo[1,5-c]quinazoline-2-carboxamide] | 2 nM
2 | COc1cccc2c1nc(N)n1nc(C(=O)N3CCN(Cc4ccccc4)CC3)cc21 [Ex-71, (5-amino-7-methoxypyrazolo[1,5-c]quinazolin-2-yl)(4-benzylpiperazin-1-yl)methanone] | 11 nM
3 | COc1cccc2c1nc(N)n1nc(CN3CCN(c4ccccc4)CC3)cc21 [Ex-66, 7-methoxy-2-((4-phenylpiperazin-1-yl)methyl)pyrazolo [1,5-c]quinazolin-5-amine] | 145 nM
4 | COc1cccc2c1nc(N)n1nc(CN3CC(O)C3)cc21 [Ex-67, 1-((5-amino-7-methoxypyrazolo[1,5-c]quinazolin-2-yl)methyl)azetidin-3-ol] | 473 nM
5 | COc1cccc2c1nc(N)n1nc(C(=O)NCc3cccc4cccnc34)cc21 [Ex-91, 5-amino-7-methoxy-N-(quinolin-8-ylmethyl)pyrazolo[1,5-c]quinazoline-2-carboxamide] | 0.4 nM
6 | CCN1CCC2(CCN(C(=O)c3cc4c5cccc(OC)c5nc(N)n4n3)C2)C1 (centres unmarked) [Ex-89, (5-amino-7-methoxypyrazolo[1,5-c]quinazolin-2-yl)(7-ethyl-2,7-diazaspiro[4.4]nonan-2-yl)methanone] | 43 nM
7 | COc1cccc2c1nc(N)n1nc(C(=O)N3CCCC3)cc21 [Ex-74, (5-amino-7-methoxypyrazolo[1,5-c]quinazolin-2-yl)(pyrrolidin-1-yl)methanone] | 5 nM
8 | COc1cccc2c1nc(N)n1nc(-c3nnc(N4CCOCC4)o3)cc21 [Ex-101, 7-methoxy-2-(5-morpholino-1,3,4-oxadiazol-2-yl)pyrazolo[1,5-c]quinazolin-5-amine] | 39 nM
9 | COc1cccc2c1nc(N)n1nc(-c3cnco3)cc21 [Ex-2, 7-methoxy-2-(oxazol-5-yl)pyrazolo[1,5-c]quinazolin-5-amine] | 20 nM
10 | COc1cccc2c1nc(N)n1nc(C(=O)N3CCNCC3)cc21 [Ex-76, (5-amino-7-methoxypyrazolo[1,5-c]quinazolin-2-yl)(piperazin-1-yl)methanone] | 300 nM
11 | COc1cccc2c1nc(N)n1nc(C(=O)N3CCN(Cc4ccc(F)cc4)CC3)cc21 [Ex-73, (5-amino-7-methoxypyrazolo[1,5c]-quinazolin-2-yl)(4-(4-fluorobenzyl)-piperazin-1-yl)methanone] | 11 nM
12 | Nc1nc2c(F)cccc2c2cc(Cc3cccc4cccnc34)nn12 [Ex-109, 7-fluoro-2-(quinolin-8-ylmethyl)pyrazolo[1,5-c]quinazolin-5-amine] | 6 nM
13 | Nc1nc2c(F)cccc2c2cc(C(=O)N3CCN(c4ccc(F)cc4F)CC3)nn12 [Ex-111, (5-amino-7-fluoropyrazolo[1,5-c]quinazolin-2-yl)(4-(2,4-difluorophenyl)piperazin-1-yl)methanone] | 94 nM
14 | COc1cccc2c1nc(N)n1nc(C(=O)Nc3ccccc3)cc21 [Ex-80, 5-amino-7-methoxy-N-phenylpyrazolo[1,5-c]quinazoline-2-carboxamide] | 3 nM
15 | Nc1nc2c(F)cccc2c2cc(C(=O)N3CCN(c4ccccn4)CC3)nn12 [Ex-110, (5-amino-7-fluoropyrazolo[1,5-c]quinazolin-2-yl)(4-(pyridin-2-yl)piperazin-1-yl)methanone] | 32 nM
16 | COc1cccc2c1nc(N)n1nc(C(=O)N3CCC4(CCN(Cc5ccccc5)C4)C3)cc21 (centres unmarked) [Ex-90, (5-amino-7-methoxypyrazolo[1,5-c]quinazolin-2-yl)(7-benzyl-2,7-diazaspiro[4.4]nonan-2-yl)methanone] | 50 nM

Continued, values first:

Row | Ki | SMILES
17 | 5 nM | COc1cccc2c1nc(N)n1nc(Cc3cccc4[nH]ccc34)cc21 [Ex-41, 2-((1H-indol-4-yl)methyl)-7-methoxypyrazolo[1,5-c]quinazolin-5-amine]
18 | 17 nM | COc1cccc2c1nc(N)n1nc(Cc3ccccc3C(F)(F)F)cc21 [Ex-17, 7-methoxy-2-(2-(trifluoromethyl)benzyl)pyrazolo[1,5-c]quinazolin-5-amine]
19 | 67 nM | COc1cccc2c1nc(N)n1nc(Cc3ccccc3N3CCNCC3)cc21 [Ex-19, 7-methoxy-2-(2-(piperazin-1-yl)benzyl)pyrazolo[1,5-c]quinazolin-5-amine]
20 | 67 nM | Nc1nc2ccc(F)cc2c2cc(Cc3ccccc3)nn12 [Ex-104, 2-benzyl-9-fluoropyrazolo[1,5-c]quinazolin-5-amine]
21 | 17 nM | COc1cccc2c1nc(N)n1nc(Cc3ccccc3CN3CCCC3)cc21 [Ex-29, 7-methoxy-2-(2-(pyrrolidin-1-ylmethyl)benzyl)pyrazolo[1,5-c]quinazolin-5-amine]
22 | 32 nM | COc1ccc(Cc2cc3c4cccc(OC)c4nc(N)n3n2)cc1 [Ex-33, 7-methoxy-2-(4-methoxybenzyl)pyrazolo[1,5-c]quinazolin-5-amine]
23 | 3 nM | COc1cccc2c1nc(N)n1nc(Cc3ccccc3N3CCOCC3)cc21 [Ex-18, 7-methoxy-2-(2-morpholinobenzyl)pyrazolo[1,5-c]quinazolin-5-amine]
24 | 14 nM | Nc1nc2c(F)cccc2c2cc(Cc3ccccc3)nn12 [Ex-108, 2-benzyl-7-fluoropyrazolo[1,5-c]quinazolin-5-amine]
25 | 4 nM | COc1cccc2c1nc(N)n1nc(C(=O)N(C)Cc3ccccc3)cc21 [Ex-81, 5-amino-N-benzyl-7-methoxy-N-methylpyrazolo[1,5-c]quinazoline-2-carboxamide]
26 | 61 nM | COc1cccc2c1nc(N)n1nc(Cc3ccc(N(C)C)cc3)cc21 [Ex-11, 2-(4-(dimethylamino)benzyl)-7-methoxypyrazolo[1,5-c]quinazolin-5-amine]
27 | 51 nM | COc1cccc2c1nc(N)n1nc(Cc3ccccc3CN3CCOCC3)cc21 [Ex-21, 7-methoxy-2-(2-(morpholinomethyl)benzyl)pyrazolo[1,5-c]quinazolin-5-amine]
28 | 14 nM | COc1cccc2c1nc(N)n1nc(CN3Cc4cccnc4C3)cc21 [Ex-69, 2-((5,7-dihydro-6H-pyrrolo[3,4-b]pyridin-6-yl)methyl)-7-methoxypyrazolo[1,5-c]quinazolin-5-amine]
29 | 27 nM | COc1cccc2c1nc(N)n1nc(Cc3ccc(F)c(F)c3F)cc21 [Ex-39, 7-methoxy-2-(2,3,4-trifluorobenzyl)pyrazolo[1,5-c]quinazolin-5-amine]
30 | 130 nM | COc1cccc2c1nc(N)n1nc(Cc3ccc(C(F)(F)F)cc3)cc21 [Ex-35, 7-methoxy-2-(4-(trifluoromethyl)benzyl)pyrazolo[1,5-c]quinazolin-5-amine]
31 | 316 nM | COc1cccc2c1nc(N)n1nc(Cc3ccc(N4CCN(C)CC4)cc3)cc21 [Ex-12, 7-methoxy-2-(4-(4-methylpiperazin-1-yl)benzyl)pyrazolo[1,5-c]quinazolin-5-amine]
32 | 2 nM | COc1cccc2c1nc(N)n1nc(Cc3ccnc4ccccc34)cc21 [Ex-14, 7-methoxy-2-(quinolin-4-ylmethyl)pyrazolo[1,5-c]quinazolin-5-amine]
33 | 120 nM | CCN1CCN(c2ccccc2Cc2cc3c4cccc(OC)c4nc(N)n3n2)CC1 [Ex-26, 2-(2-(4-ethylpiperazin-1-yl)benzyl)-7-methoxypyrazolo[1,5-c]quinazolin-5-amine]
34 | 40 nM | COCc1cccc(Cc2cc3c4cccc(OC)c4nc(N)n3n2)c1 [Ex-48, 7-methoxy-2-(3-(methoxymethyl)benzyl)pyrazolo[1,5-c]quinazolin-5-amine]
35 | 128 nM | COc1cccc2c1nc(N)n1nc(Cc3ccccc3OCc3ccccc3)cc21 [Ex-51, 2-(2-(benzyloxy)benzyl)-7-methoxypyrazolo[1,5-c]quinazolin-5-amine]
36 | 45 nM | COc1cccc2c1nc(N)n1nc(-c3nc(Cc4ccccc4)no3)cc21 [Ex-93, 2-(3-benzyl-1,2,4-oxadiazol-5-yl)-7-methoxypyrazolo[1,5-c]quinazolin-5-amine]
37 | 165 nM | COc1cccc2c1nc(N)n1nc(Cc3cccc4nc(C)ccc34)cc21 [Ex-57, 7-methoxy-2-((2-methylquinolin-5-yl)methyl)pyrazolo[1,5-c]quinazolin-5-amine]
38 | 2 nM | COc1cccc2c1nc(N)n1nc(Cc3cc(F)ccc3F)cc21 [Ex-64, 2-(2,5-difluorobenzyl)-7-methoxypyrazolo[1,5-c]quinazolin-5-amine]
